One may read the IC80 as the concentration needed for an effect of 80%.

Consider 2 compounds from patent US5451605A, “1,2-epoxycyclohexanyl and bicyclic aromatic substituted ethyne compounds having retinoid-like biological activity” (Allergan, Inc., priority 1993, dated 1995).

Structures are written as SMILES.

For experiment [1], the system named is ornithine decarboxylase (ODC). The experiment can be described thus: inhibition of TPA induction of ornithine decarboxylase (ODC). Type of experiment: in vivo. The source says: The retinoid-like activity of these compounds is confirmed through the classic measure of retinoic acid activity involving the effects of retinoic acid on ornithine decarboxylase. The original work on the correlation between retinoic acid and decrease in cell proliferation was done by Verma & Boutwell, Cancer Research, 1977, 37,2196-2201. That reference discloses that ornithine decarboxylase (ODC) activity increased precedent to polyamine biosynthesis. It has been established elsewhere that increases in polyamine synthesis can be correlated or associated with cellular proliferation. Thus, if ODC activity could be inhibited, cell hyperproliferation could be modulated. Although all causes for ODC activity increases are unknown, it is known that 12-0-tetradecanoylphorbol-13-acetate (TPA) induces ODC activity.

The test system of experiment [2] is ornithine decarboxylase (ODC). To be noted: general statement, TPA-induced ODC; cited from earlier work.

Compound `CC1(C)CCCC2(C)OC12C#Cc1ccc2cc(C(=O)O)ccc2c1` (racemic) [Compound 1, 6-[2-(1,2-epoxy-2,6,6-trimethyl-cyclohexan-1-yl)-ethynyl]-2-naphthoic acid] gave an IC80 in experiment [1] of 0.0305 µM.

In the case of `CC1=C(/C=C/C(C)=C/C=C/C(C)=C/C(=O)O)C(C)(C)CCC1` [Retinoic acid], the “inhibition of TPA induction of ODC activity” value in experiment [2] is “inhibits this induction of ODC activity by TPA”.
